# Data from paper PMC6829864, “Determination of Ligand Profiles for Pseudomonas aeruginosa Solute Binding Proteins” (International Journal of Molecular Sciences, 2019).
# Values joined by “and” are separate entries in the source; they are usually repeats but may differ in a detail not shown here. Identical values can stand only once. “Also recorded” adds a separate entry of the source. Where a SMILES comes first, the peptide text is derived from it.
# Columns and labels:
# PA4497 (dppA2) = target: T1, PA4497 (dppA2) (Pseudomonas aeruginosa, UniProt Q9HVS4); format: binding; conditions: arrays PM3B, PM6, PM7, PM8
# T1 sequence (Q9HVS4 25-532): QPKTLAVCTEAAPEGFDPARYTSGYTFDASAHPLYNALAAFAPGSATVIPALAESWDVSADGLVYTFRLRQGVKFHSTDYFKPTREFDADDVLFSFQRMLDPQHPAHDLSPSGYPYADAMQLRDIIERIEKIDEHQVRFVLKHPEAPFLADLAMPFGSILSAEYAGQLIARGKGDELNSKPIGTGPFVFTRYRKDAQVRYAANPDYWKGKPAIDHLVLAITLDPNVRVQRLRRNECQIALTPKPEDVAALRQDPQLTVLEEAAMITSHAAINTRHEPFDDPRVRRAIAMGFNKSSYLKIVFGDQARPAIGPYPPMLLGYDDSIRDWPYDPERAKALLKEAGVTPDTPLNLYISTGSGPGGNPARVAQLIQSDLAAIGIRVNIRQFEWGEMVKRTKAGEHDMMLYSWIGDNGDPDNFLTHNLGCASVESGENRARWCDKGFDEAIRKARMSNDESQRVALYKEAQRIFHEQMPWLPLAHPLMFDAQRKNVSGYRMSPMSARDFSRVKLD
# [1] = tested on: Pseudomonas aeruginosa PAO1; format: cell-based; conditions: chemoeffector 1 mM; for Chemotaxis: capillary assay, 30 min
# PA1074 (braC) = PA1074 (braC) (Pseudomonas aeruginosa, UniProt P21175); experiment: biochemical; format: binding, Pseudomonas aeruginosa PAO1
# Sequence of PA1074 (braC) (P21175 27-373): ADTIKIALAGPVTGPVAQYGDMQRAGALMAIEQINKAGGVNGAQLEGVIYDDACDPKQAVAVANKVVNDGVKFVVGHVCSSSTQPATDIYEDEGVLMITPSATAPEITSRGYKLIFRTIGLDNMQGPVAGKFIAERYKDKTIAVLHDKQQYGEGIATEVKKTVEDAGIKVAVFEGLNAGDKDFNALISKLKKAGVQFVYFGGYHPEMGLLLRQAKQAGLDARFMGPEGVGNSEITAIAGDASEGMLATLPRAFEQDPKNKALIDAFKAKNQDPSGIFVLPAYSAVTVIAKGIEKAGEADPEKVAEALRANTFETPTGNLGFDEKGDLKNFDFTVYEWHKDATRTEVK
# [2] = target: PA4497 (DppA2) solute binding protein of Pseudomonas aeruginosa PAO1 (Pseudomonas aeruginosa PAO1) (UniProt Q9HVS4); experiment: differential scanning fluorimetry thermal shift assay
# PA1493 (cysP) = PA1493 (cysP) (Pseudomonas aeruginosa, UniProt Q9I3L9); experiment: biochemical; format: binding, Pseudomonas aeruginosa PAO1; conditions: PA1493 (cysP); 25 °C
# Sequence of PA1493 (cysP) (Q9I3L9 23-332): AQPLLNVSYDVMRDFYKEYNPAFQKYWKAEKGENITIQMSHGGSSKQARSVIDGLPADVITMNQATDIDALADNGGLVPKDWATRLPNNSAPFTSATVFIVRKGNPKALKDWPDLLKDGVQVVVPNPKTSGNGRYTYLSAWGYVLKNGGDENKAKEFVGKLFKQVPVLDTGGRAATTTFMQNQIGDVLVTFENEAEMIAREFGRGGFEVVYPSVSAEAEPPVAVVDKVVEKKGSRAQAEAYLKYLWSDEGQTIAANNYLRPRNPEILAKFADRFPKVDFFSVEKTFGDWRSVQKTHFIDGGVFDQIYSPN
# PA4913 = PA4913 (Pseudomonas aeruginosa, UniProt Q9HUQ0); experiment: DSF thermal shift ligand screening, PA4913; format: binding, Pseudomonas aeruginosa PAO1; conditions: Tm change vs ligand-free protein
# Sequence of PA4913 (Q9HUQ0 28-374): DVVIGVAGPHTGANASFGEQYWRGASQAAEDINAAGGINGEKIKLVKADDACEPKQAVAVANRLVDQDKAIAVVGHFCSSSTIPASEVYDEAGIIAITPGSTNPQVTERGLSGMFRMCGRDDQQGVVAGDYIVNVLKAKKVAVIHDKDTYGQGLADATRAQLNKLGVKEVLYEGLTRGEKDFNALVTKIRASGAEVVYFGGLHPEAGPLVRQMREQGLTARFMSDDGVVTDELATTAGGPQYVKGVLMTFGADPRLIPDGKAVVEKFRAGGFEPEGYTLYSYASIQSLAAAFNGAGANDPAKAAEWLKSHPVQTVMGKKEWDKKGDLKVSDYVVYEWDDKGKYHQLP
# PA1863 (modA) = PA1863 (modA) (Pseudomonas aeruginosa, UniProt Q9I2N2); experiment: biochemical; format: binding, Pseudomonas aeruginosa PAO1
# Sequence of PA1863 (modA) (Q9I2N2 24-251): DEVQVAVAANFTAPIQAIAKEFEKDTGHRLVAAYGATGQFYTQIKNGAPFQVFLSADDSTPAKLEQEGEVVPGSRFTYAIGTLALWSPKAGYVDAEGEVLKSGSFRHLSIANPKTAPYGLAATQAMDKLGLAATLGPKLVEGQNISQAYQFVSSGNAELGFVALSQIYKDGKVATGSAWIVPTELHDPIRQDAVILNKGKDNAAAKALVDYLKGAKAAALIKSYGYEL
# [3] = target: PA4500 (DppA3) (Pseudomonas aeruginosa PAO1) (UniProt Q9HVS1); experiment: ITC
# Sequence of PA4500 (DppA3) (Pseudomonas aeruginosa PAO1) (Q9HVS1 25-533): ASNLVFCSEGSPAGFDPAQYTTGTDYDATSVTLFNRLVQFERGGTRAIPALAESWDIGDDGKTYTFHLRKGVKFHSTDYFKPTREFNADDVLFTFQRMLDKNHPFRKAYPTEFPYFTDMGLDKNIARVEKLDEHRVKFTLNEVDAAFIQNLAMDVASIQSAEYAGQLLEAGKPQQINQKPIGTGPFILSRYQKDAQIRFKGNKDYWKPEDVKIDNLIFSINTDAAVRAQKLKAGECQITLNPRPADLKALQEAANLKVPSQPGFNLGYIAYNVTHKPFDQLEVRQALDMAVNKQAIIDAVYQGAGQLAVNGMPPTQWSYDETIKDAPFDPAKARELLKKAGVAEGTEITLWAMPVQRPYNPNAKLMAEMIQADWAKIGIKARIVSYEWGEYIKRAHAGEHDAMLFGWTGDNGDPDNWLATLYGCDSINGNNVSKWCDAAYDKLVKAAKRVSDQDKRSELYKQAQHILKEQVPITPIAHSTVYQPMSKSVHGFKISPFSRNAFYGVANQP
# [4] = target: PA4500 (DppA3) solute binding protein of Pseudomonas aeruginosa PAO1 (Pseudomonas aeruginosa PAO1) (UniProt Q9HVS1); experiment: differential scanning fluorimetry thermal shift assay
# Sequence of PA4500 (DppA3) solute binding protein of Pseudomonas aeruginosa PAO1 (Pseudomonas aeruginosa PAO1) (Q9HVS1 25-533): as above
# PA3610 (potD) = PA3610 (potD) (Pseudomonas aeruginosa, UniProt Q9HY16); experiment: Isothermal titration calorimetry, PA3610; format: binding, Pseudomonas aeruginosa PAO1; conditions: 25 °C, read-out: KD by ITC (converted)
# Sequence of PA3610 (potD) (Q9HY16 21-354): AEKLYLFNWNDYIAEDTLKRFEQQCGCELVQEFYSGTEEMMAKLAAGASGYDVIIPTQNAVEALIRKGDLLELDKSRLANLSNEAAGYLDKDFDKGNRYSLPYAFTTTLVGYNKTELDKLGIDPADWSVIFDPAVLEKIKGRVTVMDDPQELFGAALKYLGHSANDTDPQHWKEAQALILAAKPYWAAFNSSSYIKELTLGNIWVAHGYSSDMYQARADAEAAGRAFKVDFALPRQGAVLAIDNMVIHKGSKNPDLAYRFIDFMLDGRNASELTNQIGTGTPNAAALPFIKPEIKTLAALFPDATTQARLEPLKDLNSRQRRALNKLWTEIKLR
# PA0222 = target: T2, PA0222 (Pseudomonas aeruginosa, UniProt Q9I6R6); experiment: Isothermal titration calorimetry, PA0222; format: binding, Pseudomonas aeruginosa PAO1; conditions: 25 °C
# T2 sequence (Q9I6R6 29-352): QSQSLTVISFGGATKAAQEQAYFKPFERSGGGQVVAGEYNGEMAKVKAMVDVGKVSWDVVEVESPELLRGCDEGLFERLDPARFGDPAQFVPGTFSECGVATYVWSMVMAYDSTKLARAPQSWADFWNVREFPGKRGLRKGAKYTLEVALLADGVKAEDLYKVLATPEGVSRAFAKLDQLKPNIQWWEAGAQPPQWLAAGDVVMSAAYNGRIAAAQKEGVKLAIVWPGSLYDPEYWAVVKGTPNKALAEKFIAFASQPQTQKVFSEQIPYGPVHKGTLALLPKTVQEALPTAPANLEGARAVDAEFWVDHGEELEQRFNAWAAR
# PA4500 (dppA3) [5] = target: T3, PA4500 (dppA3) (Pseudomonas aeruginosa, UniProt Q9HVS1); experiment: DSF thermal shift ligand screening, PA4500; format: binding, Pseudomonas aeruginosa PAO1; conditions: arrays PM3B, PM6, PM7, PM8
# T3 sequence (Q9HVS1 25-533): as the sequence (Q9HVS1 25-533) above
# PA4500 (dppA3) [6] = target: T3, PA4500 (dppA3); experiment: Isothermal titration calorimetry, PA4500; format: binding, Pseudomonas aeruginosa PAO1; conditions: 25 °C; for Kd: read-out: KD by ITC (converted)
# PA3889 (opuCC) = PA3889 (opuCC) (Pseudomonas aeruginosa, UniProt Q9HXC4); experiment: Isothermal titration calorimetry, PA3889; format: binding, Pseudomonas aeruginosa PAO1; conditions: 25 °C
# Sequence of PA3889 (opuCC) (Q9HXC4 24-311): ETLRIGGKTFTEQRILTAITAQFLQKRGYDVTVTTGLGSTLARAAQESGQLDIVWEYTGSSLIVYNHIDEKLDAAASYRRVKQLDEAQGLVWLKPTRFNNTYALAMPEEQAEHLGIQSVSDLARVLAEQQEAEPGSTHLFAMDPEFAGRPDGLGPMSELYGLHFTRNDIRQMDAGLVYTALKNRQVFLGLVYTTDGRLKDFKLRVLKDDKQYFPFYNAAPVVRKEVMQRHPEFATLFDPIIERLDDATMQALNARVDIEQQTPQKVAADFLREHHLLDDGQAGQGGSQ
# PA2592 [7] = target: T4, PA2592 (Pseudomonas aeruginosa, UniProt Q9I0P5); experiment: DSF thermal shift ligand screening, PA2592; format: binding, Pseudomonas aeruginosa PAO1; conditions: arrays PM2A, PM3B, PM5
# T4 sequence (Q9I0P5 20-367): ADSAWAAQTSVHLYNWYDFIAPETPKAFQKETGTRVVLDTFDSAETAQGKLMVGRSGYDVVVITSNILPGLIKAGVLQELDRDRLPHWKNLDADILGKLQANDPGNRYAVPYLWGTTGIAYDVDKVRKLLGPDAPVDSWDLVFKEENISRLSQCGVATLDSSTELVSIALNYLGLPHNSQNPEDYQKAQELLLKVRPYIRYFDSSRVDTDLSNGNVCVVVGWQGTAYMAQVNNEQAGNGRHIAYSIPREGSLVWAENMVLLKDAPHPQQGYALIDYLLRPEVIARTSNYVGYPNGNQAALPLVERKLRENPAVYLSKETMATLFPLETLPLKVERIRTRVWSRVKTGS
# PA2592 [8] = target: T4, PA2592; experiment: biochemical; format: binding
compound,measurement,setting,value
CC(C)CC(N)C(=O)NC(CC(C)C)C(=O)NC(CC(C)C)C(=O)O (stereo not drawn) [Leu-Leu-Leu] (H-Leu-Leu-Leu-OH; configuration not given here),Tm DSF (Tm increase),PA4497 (dppA2),5.0 °C
CC(C)[C@H](N)C(=O)N[C@@H](Cc1ccc(O)cc1)C(=O)N[C@H](C(=O)O)C(C)C [Val-Tyr-Val] (H-Val-Tyr-Val-OH),Tm DSF (Tm increase),PA4497 (dppA2),5.0 °C
same,Chemotaxis,[1]; except molybdate 0.1 mM,Yes (Positive chemotaxis was considered when the number of bacterial cells per capillary was superior to 5000.)
CC[C@H](C)[C@H](N)C(=O)O [L-Ile],Kd,PA1074 (braC),280 nM
Gly-Gly-Phe (peptide),Tm increase (DSF),[2],3.7 °C
NCC(=O)NC(CO)C(=O)O (stereo not drawn) [Gly-Ser],Chemotaxis,[1]; except molybdate 0.1 mM,Yes (Positive chemotaxis was considered when the number of bacterial cells per capillary was superior to 5000.)
phosphate,No Binding Observed by ITC,PA1493 (cysP),did not show any binding
O=[Se](O)O [selenite],No Binding Observed by ITC,PA1493 (cysP),did not show any binding
CC[C@H](C)[C@H](NC(=O)CNC(=O)CN)C(=O)O [Gly-Gly-Ile] (H-Gly-Gly-Ile-OH),Tm DSF (Tm increase),PA4497 (dppA2),5.1 °C
C[C@@H](N)C(=O)O [D-Ala],No Binding Observed by ITC,PA1074 (braC),no binding was detected
same,Tm DSF (Tm increase),PA4913,6.8 °C
same,Chemotaxis,[1]; except molybdate 0.1 mM,"Yes [15, 41] Yes [15, 41] Yes [15, 41] Yes [15, 41] Yes [15, 41] Yes Yes [15, 41] n. d. (Positive chemotaxis was considered when the number of bacterial cells per capillary was superior to 5000.)"
same,Chemotaxis response in words,[1]; except molybdate 0.1 mM,very strong taxis
Tungstate,KD by ITC,"PA1863 (modA); PA1863 (modA), 25 °C",ultra-tightly; also recorded: Ultratight
same,Chemotaxis,[1]; except molybdate 0.1 mM,No (Positive chemotaxis was considered when the number of bacterial cells per capillary was superior to 5000.)
Ala-His (peptide),Ka,[3],134000 M⁻¹
same,Tm increase (DSF),[4],3 °C
NCCCCCN [Cadaverine],Kd,PA3610 (potD),65000 nM
"CCCC(=O)O [Butyrate, butyric acid]",No Binding Observed by ITC,PA0222,failed to bind
Gly-Gly-Ala (peptide),Tm increase (DSF),[2],7.6 °C
Ala-Thr (peptide),Ka,[3],1.09e+06 M⁻¹
same,Tm increase (DSF),[4],7 °C
N[C@@H](Cc1ccccc1)C(=O)NCC(=O)NCC(=O)O [Phe-Gly-Gly] (H-Phe-Gly-Gly-OH),Tm DSF (Tm increase),PA4497 (dppA2),8.3 °C
CC(C)C[C@H](N)C(=O)NCC(=O)NCC(=O)O [Leu-Gly-Gly] (H-Leu-Gly-Gly-OH),Tm DSF (Tm increase),PA4497 (dppA2),3.2 °C
same,Chemotaxis,[1]; except molybdate 0.1 mM,Yes (Positive chemotaxis was considered when the number of bacterial cells per capillary was superior to 5000.)
Phe-Gly-Gly (peptide),Tm increase (DSF),[2],8.3 °C
N[C@@H](CCO)C(=O)O [L-Homoserine],Kd,PA1074 (braC),720 nM
same,"Chemotaxis response, number of cells per capillary",[1]; corrected for buffer capillaries,"more than 300,000 cells per capillary"
NCC(=O)NCC(=O)N[C@@H](Cc1ccccc1)C(=O)O [Gly-Gly-Phe] (H-Gly-Gly-Phe-OH),Tm DSF (Tm increase),PA4497 (dppA2),3.7 °C
Gly-Val (peptide),Ka,[3],157000 M⁻¹
same,Tm increase (DSF),[4],2 °C
C[C@H](NC(=O)CNC(=O)CN)C(=O)O [Gly-Gly-Ala],Tm DSF (Tm increase),PA4497 (dppA2),7.6 °C
same,Chemotaxis,[1]; except molybdate 0.1 mM,No (Positive chemotaxis was considered when the number of bacterial cells per capillary was superior to 5000.)
C[C@H](N)C(=O)N[C@H](C(=O)O)[C@@H](C)O [Ala-Thr] (H-Ala-Thr-OH; N-terminus and C-terminus assumed),Tm DSF (Tm increase),PA4500 (dppA3) [5],7 °C
same,Kd,PA4500 (dppA3) [6],980 nM
Leu-Gly-Gly (peptide),Tm increase (DSF),[2],3.2 °C
N[C@@H](CCC(=O)O)C(=O)N[C@@H](CCC(=O)O)C(=O)O [Glu-Glu] (H-Glu-Glu-OH),No Binding Observed by ITC,PA4500 (dppA3) [6],absence of binding
CC(C)[C@H](NC(=O)CN)C(=O)O [Gly-Val] (H-Gly-Val-OH),Tm DSF (Tm increase),PA4500 (dppA3) [5],2.0 °C
same,Kd,PA4500 (dppA3) [6],6300 nM
C[N+](C)(C)CCO [Choline],No Binding Observed by ITC,PA3889 (opuCC),no binding heats were observed
CCC(N)C(=O)O (stereo not drawn) [α-aminobutyrate],Tm DSF (Tm increase),PA4913,8.1 °C
C[C@H](N)C(=O)NCC(=O)O [Ala-Gly] (H-Ala-Gly-OH),Chemotaxis,[1]; except molybdate 0.1 mM,No (Positive chemotaxis was considered when the number of bacterial cells per capillary was superior to 5000.)
Gly-Gly-Ile (peptide),Tm increase (DSF),[2],5.1 °C
Gly-Phe-Phe (peptide),Tm increase (DSF),[2],6.6 °C
NCCCCN=C(N)N [Agmatine],Tm DSF (Tm increase),PA2592 [7],5.3 °C
same,Kd,PA2592 [8],15000 nM
CC(C)[C@H](N)C(=O)O [L-Val],Kd,PA1074 (braC),70 nM
same,Tm DSF (Tm increase),PA4913,4.1 °C
C[C@H](N)C(=O)N[C@@H](Cc1ccccc1)C(=O)O [Ala-Phe],Tm DSF (Tm increase),PA4500 (dppA3) [5],2.0 °C
same,Kd,PA4500 (dppA3) [6],6100 nM
[O]=[Mo](=[O])([O-])[O-] [Molybdate],No Binding Observed by ITC,PA1493 (cysP),did not show any binding
same,Kd,"PA1863 (modA); Affinity by ITC, PA1863 (modA), value as printed in text",~10 nM
same,Kd,"PA1863 (modA); KD by ITC, PA1863 (modA), 25 °C",10 nM
Ala-Phe (peptide),Ka,[3],162000 M⁻¹
same,Tm increase (DSF),[4],2 °C
Ala-Ala (peptide),Ka,[3],4.71e+06 M⁻¹
same,Tm increase (DSF),[4],11.3 °C
Leu-Leu-Leu (peptide),Tm increase (DSF),[2],5 °C
C[C@H](N)C(=O)N[C@@H](C)C(=O)N[C@@H](C)C(=O)O [Ala-Ala-Ala],Tm DSF (Tm increase),PA4497 (dppA2),9.1 °C
same,No Binding Observed by ITC,PA4500 (dppA3) [6],absence of binding
same,Chemotaxis,[1]; except molybdate 0.1 mM,No (Positive chemotaxis was considered when the number of bacterial cells per capillary was superior to 5000.)
NCC(=O)NCC(=O)NCC(=O)O [Gly-Gly-Gly] (H-Gly-Gly-Gly-OH),Tm DSF (Tm increase),PA4497 (dppA2),4.4 °C
[O]=[V]([O-])([O-])[O-] [Vanadate],No Binding Observed by ITC,PA1863 (modA),did not reveal any binding
Ala-Ala-Ala (peptide),Tm increase (DSF),[2],9.1 °C
NCC(=O)NC(Cc1ccccc1)C(=O)NC(Cc1ccccc1)C(=O)O (stereo not drawn) [Gly-Phe-Phe] (H-Gly-Phe-Phe-OH; configuration not given here),Tm DSF (Tm increase),PA4497 (dppA2),6.6 °C
Val-Tyr-Val (peptide),Tm increase (DSF),[2],5 °C
C[C@H](N)C(=O)O [L-Ala],Kd,PA1074 (braC),210 nM
same,No Binding Observed by ITC,PA4500 (dppA3) [6],absence of binding
same,Tm DSF (Tm increase),PA4913,12.7 °C
C[C@H](N)C(=O)N[C@@H](Cc1c[nH]cn1)C(=O)O [Ala-His] (H-Ala-His-OH; N-terminus and C-terminus assumed),Tm DSF (Tm increase),PA4500 (dppA3) [5],3.0 °C
same,Kd,PA4500 (dppA3) [6],7400 nM
[O]=[Mn](=[O])([O-])[O-] [manganate],No Binding Observed by ITC,PA1863 (modA),did not reveal any binding
Gly-Gly-Gly (peptide),Tm increase (DSF),[2],4.4 °C
C[C@H](N)C(=O)N[C@@H](C)C(=O)O [Ala-Ala] (H-Ala-Ala-OH),Tm DSF (Tm increase),PA4500 (dppA3) [5],11 °C and 11.3 °C
same,Kd,PA4500 (dppA3) [6],210 ± 20 nM
